How the values were obtained:
Assay type in all cases: in vivo
hydroponic wheat = assay: Wheat under drought stress (25% PEG-6000); conditions: for Drought damage index (%) / Dry weight(g) Overground part / Dry weight(g) Underground part / Fresh weight (g) Overground part / Fresh weight (g) Underground part / Root length (cm): 25% PEG-6000 6 d, recovery 7 d; for Drought damage index reduced by / Fresh weight of the overground part improved by / Fresh weight of the underground part improved by / Root length of the wheat seedlings increased by: compared with the control group
Protocol: A 6-mesh sieve was used as a container to hydroponic wheat, 50 grains were sieved each time, a ½ Hoagland nutrient solution was replaced every other two days, a 2-amino-3-indolyl butyric acid solution was sprayed on the leaf surfaces when the wheat grew to a stage of two true leaves and one terminal bud, wherein the concentrations of 2-amino-3-indolyl butyric acid were 0 nm, 100 nm and 1,000 nm, and meanwhile, 0.02% of Tween-20 was added as a surfactant. After continuously spraying for two days, on the third day, the hydroponic nutrient solution was replaced with a ½ Hoagland nutrient solution containing 25% PEG-6000 to perform a stress treatment, a rehydration treatment was performed after the drought stress for 6 d, the wheat recovered to grow for 7 d in a normal nutrient solution, a drought damage index was observed and determined, and the root length and biomass were determined.
The performance characteristics of the leaves subjected to the drought damage were similar to those of the leaves subjected to a salt damage. The drought damage rate and the drought damage index were introduced by using the evaluation index of the salt damage, a drought damage index formula was as follows, and the drought damage grading standard was shown in table 16.

ryegrass = assay: Ryegrass under high temperature stress; design: Heat damage index: scale not given here; conditions: for Heat damage index: 45° C. 12 h, recovery 7 d; for Heat damage index of the ryegrass decreased: vs control group
Protocol: 2-amino-3-indolyl butyric acid was dissolved in distilled water and gradiently diluted with distilled water to obtain solutions of 1 nm, 10 nm, 100 nm and 1,000 nm. A blank control was additionally set. Meanwhile, 0.02% Tween 20 was added as a surfactant. Each concentration was set to 4 replicates while a room temperature blank control was set. Ryegrass seeds were weighed at 0.8 g per pot, sown in a pot with the diameter of 8.5 cm and planted in a greenhouse at 25° C. with the humidity of 60%-70% and the light intensity of 200 μmolm^−2s^−1 (12 h light/12 h dark). After 7 d of growth, the ryegrass was treated by spraying the 2-amino-3-indolyl butyric acid solution on the leaf surfaces twice for 24 h. 24 h after the second spraying, the ryegrass was transferred to an illumination incubator at 45° C. for a high temperature stress treatment for 12 h. The plants were taken out and transferred to the greenhouse at 25° C. for recovery for 7 d. The damage conditions of the plants were observed and counted, and the heat damage grades were calculated. The heat damage grading standard was shown in table 8 and a calculation formula of the heat damage index was as follows.

wheat powdery mildew = assay: Field test of inducing wheat against infection by powdery mildew fungi; conditions: 1,000 nm
Protocol: Stems and leaves were sprayed with a 2-amino-3-indolyl butyric acid solution (0.02% by volume of a surfactant Tween 20 was added) at the concentration of 1,000 nm in a filed, sprayed with 0.02% by volume of the surfactant tween 20 as an auxiliary agent control and sprayed with 30 g/mu of ATaiLing as a positive control. Each treatment was repeated three times. The disease grade of the wheat after each treatment was investigated. The disease degree was recorded according to the wheat powdery mildew grading standard in the Guidelines for Field Efficacy Trials of Pesticides (I), and the disease indexes and the relative immune effects were calculated by using the same calculation formula as that of those of the tomato spotted wilt. After the harvested wheat seeds were air-dried, the thousand-grain weights of the wheat seeds after different treatments were measured.
Grading standard of wheat powdery mildew (taking leaves as units): • grade 1: the area of the disease spots accounted 5% or less of that of the whole leaves; • grade 3: the area of the disease spots accounted for 6%-15% of that of the whole leaves; and • grade 5: the area of the disease spots accounted for 16%-25% of that of the whole leaves; and • grade 7: the area of the disease spots accounted for 26%-50% of that of the whole leaves; and • grade 9: the area of the disease spots accounted for 50% or more of that of the whole leaves.

[1] = compared with the auxiliary agent control

CC(c1c[nH]c2ccccc12)C(N)C(=O)O (stereo not shown)
Drought damage index (%) (hydroponic wheat; 100 nm): 44% | Dry weight(g) Overground part (hydroponic wheat; 100 nm): 0.82 ± 0.01b g | Dry weight(g) Underground part (hydroponic wheat; 100 nm): 0.35 ± 0.01a g | Fresh weight (g) Overground part (hydroponic wheat; 100 nm): 7.28 ± 0.05b g | Fresh weight (g) Underground part (hydroponic wheat; 100 nm): 3.66 ± 0.01b g | Root length (cm) (hydroponic wheat; 100 nm): 13.97 ± 0.03a cm | Drought damage index (%) (hydroponic wheat; 1,000 nm): 24% | Dry weight(g) Overground part (hydroponic wheat; 1,000 nm): 0.90 ± 0.05a g | Dry weight(g) Underground part (hydroponic wheat; 1,000 nm): 0.38 ± 0.01a g | Fresh weight (g) Overground part (hydroponic wheat; 1,000 nm): 8.87 ± 0.09a g | Fresh weight (g) Underground part (hydroponic wheat; 1,000 nm): 4.51 ± 0.02a g | Root length (cm) (hydroponic wheat; 1,000 nm): 14.60 ± 0.01a cm | Drought damage index reduced by (hydroponic wheat; 1,000 nm): 44% | Fresh weight of the overground part improved by (hydroponic wheat; 1,000 nm): 44.93% | Fresh weight of the underground part improved by (hydroponic wheat; 1,000 nm): 54.98% | Root length of the wheat seedlings increased by (hydroponic wheat; 1,000 nm): 10.86% | Heat damage index (ryegrass; 1 nm): 61 | Heat damage index (ryegrass; 10 nm): 57 | Heat damage index (ryegrass; 100 nm): 43 | Heat damage index (ryegrass; 1,000 nm): 25 | Heat damage index of the ryegrass decreased (ryegrass; 1,000 nm): 65% | Relative immune effect (%) (wheat powdery mildew): 40.55% | Thousand-grain weight (wheat powdery mildew): 27.39 g | Thousand-grain weight (g) (wheat powdery mildew): 27.39 ± 0.29a g | Relative immune effect improved by (wheat powdery mildew; compared with Altailing control group): 12% | Relative immune effect improved by (wheat powdery mildew; [1]): 40% | Thousand-grain weight increased by (wheat powdery mildew; [1]): 10.80% | Disease index reduced by (wheat powdery mildew; vs auxiliary agent control group): 40.55%

CC1CCNC1C(=O)O (stereo not shown) [3-methylpyrrolidine-2-carboxylic acid]
Drought damage index (%) (hydroponic wheat; 100 nm): 39% | Dry weight(g) Overground part (hydroponic wheat; 100 nm): 0.98 ± 0.07b g | Dry weight(g) Underground part (hydroponic wheat; 100 nm): 0.47 ± 0.05b g | Fresh weight (g) Overground part (hydroponic wheat; 100 nm): 7.83 ± 0.10b g | Fresh weight (g) Underground part (hydroponic wheat; 100 nm): 3.85 ± 0.05b g | Root length (cm) (hydroponic wheat; 100 nm): 14.50 ± 0.21b cm | Drought damage index (%) (hydroponic wheat; 1,000 nm): 20% | Dry weight(g) Overground part (hydroponic wheat; 1,000 nm): 1.11 ± 0.06a g | Dry weight(g) Underground part (hydroponic wheat; 1,000 nm): 0.55 ± 0.03a g | Fresh weight (g) Overground part (hydroponic wheat; 1,000 nm): 9.12 ± 0.13a g | Fresh weight (g) Underground part (hydroponic wheat; 1,000 nm): 4.67 ± 0.11a g | Root length (cm) (hydroponic wheat; 1,000 nm): 15.03 ± 0.31a cm | Drought damage index reduced by (hydroponic wheat; 1,000 nm): 61% | Fresh weight of the overground part improved by (hydroponic wheat; 1,000 nm): 44.08% | Fresh weight of the underground part improved by (hydroponic wheat; 1,000 nm): 36.55% | Root length of the wheat seedlings increased by (hydroponic wheat; 1,000 nm): 12.58% | Heat damage index (ryegrass; 1 nm): 57 | Heat damage index (ryegrass; 10 nm): 50 | Heat damage index (ryegrass; 100 nm): 38 | Heat damage index (ryegrass; 1,000 nm): 20 | Heat damage index of the ryegrass decreased (ryegrass; 1,000 nm): 68%

From patent publication US20250204528A1, “USE OF 2-AMINO-3-INDOLYL BUTYRIC ACID OR 3-METHYLPYRROLIDINE-2-CARBOXYLIC ACID AS PLANT IMMUNITY ELICITOR” (NANJING TIANNONG BIOTECHNOLOGY CO., LTD, priority 2021, published 2025)
